Measured values: US6737383B1, “Herbicidal oxadiazolidines” (priority 1999, dated 2004)

Experiments:
cocklebur = experiment: Test B pre/postemergence cocklebur; assay type: in vivo, Xanthium strumarium
Procedure, shortened: (§1)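 Herbicidal effect was estimated by eye on a ten-point control scale after plants spent twelve to sixteen days in a greenhouse following soil or foliar treatment. Foliar sprays targeted plants at one to four leaves; all doses were formulated in a non-phytotoxic solvent with surfactant.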

surinam grass = experiment: Test B pre/postemergence surinam grass; assay type: in vivo, Brachiaria decumbens
Procedure, shortened: as §1

wheat = experiment: Test B pre/postemergence wheat; assay type: in vivo, Triticum aestivum
Procedure, shortened: as §1

smallflower flatsedge = experiment: Test B flood test smallflower flatsedge; assay type: in vivo, Cyperus difformis
Procedure, shortened: (§2)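 Each value is a visual injury score relative to controls, with 10 meaning complete control and 0 no effect. Evaluation took place twelve to sixteen days after the 2-leaf-stage plants were treated and kept in the greenhouse.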

rape = experiment: Test B pre/postemergence rape; assay type: in vivo, Brassica napus
Procedure, shortened: as §1

wild oat = experiment: Test B pre/postemergence wild oat; assay type: in vivo, Avena fatua
Procedure, shortened: as §1

morningglory = experiment: Test B pre/postemergence morningglory; assay type: in vivo, Ipomoea hederacea
Procedure, shortened: as §1

velvetleaf = experiment: Test B pre/postemergence velvetleaf; assay type: in vivo, Abutilon theophrasti
Procedure, shortened: as §1

sugar beet = experiment: Test B pre/postemergence sugar beet; assay type: in vivo, Beta vulgaris
Procedure, shortened: as §1

giant foxtail = experiment: Test B pre/postemergence giant foxtail; assay type: in vivo, Setaria faberii
Procedure, shortened: as §1

blackgrass = experiment: Test B pre/postemergence blackgrass; assay type: in vivo, Alopecurus myosuroides
Procedure, shortened: as §1

duck salad = experiment: Test B flood test duck salad; assay type: in vivo, Heteranthera limosa
Procedure, shortened: as §2

corn = experiment: Test B pre/postemergence corn; assay type: in vivo, Zea mays
Procedure, shortened: as §1

crabgrass = experiment: Test B pre/postemergence crabgrass; assay type: in vivo, Digitaria sanguinalis
Procedure, shortened: as §1

soybean = experiment: Test B pre/postemergence soybean; assay type: in vivo, Glycine max
Procedure, shortened: as §1

rice = experiment: Test B flood test rice; assay type: in vivo, Oryza sativa
Procedure, shortened: as §2

bedstraw = experiment: Test B pre/postemergence bedstraw; assay type: in vivo, Galium aparine
Procedure, shortened: as §1

pigweed = experiment: Test B pre/postemergence pigweed; assay type: in vivo, Amaranthus retroflexus
Procedure, shortened: as §1

bamyardgrass = experiment: Test B flood test barnyardgrass; assay type: in vivo, Echinochloa crus-galli
Procedure, shortened: as §2

purple nutsedge = experiment: Test B pre/postemergence purple nutsedge; assay type: in vivo, Cyperus rotundus
Procedure, shortened: as §1

[1] = Preemergence, Rate 62 g/ha, scale of 0 to 10 where 0 is no effect and 10 is complete control
[2] = Preemergence, Rate 250 g/ha, scale of 0 to 10 where 0 is no effect and 10 is complete control
[3] = Preemergence, Rate 500 g/ha, scale of 0 to 10 where 0 is no effect and 10 is complete control
[4] = Rate 62 g/ha, Postemergence, scale of 0 to 10 where 0 is no effect and 10 is complete control
[5] = Rate 125 g/ha, Postemergence, scale 0 to 10
[6] = Rate 125 g/ha, Preemergence, scale of 0 to 10 where 0 is no effect and 10 is complete control
[7] = Rate 500 g/ha, Postemergence, scale 0 to 10, 0 no effect, 10 complete control
[8] = Rate 62 g/ha, headed Pre-emergence (flood test species), scale 0 to 10 (0 no effect, 10 complete control)
[9] = Rate 125 g/ha, Pre-emergence, flood test species, scale 0 to 10 where 0 is no effect and 10 is complete control
[10] = Rate 250 g/ha, Pre-emergence, flood-test species, scale 0 to 10, 0 is no effect, 10 is complete control
[11] = Rate 500 g/ha, Pre-emergence, flood test species, scale 0 to 10 (0 no effect, 10 complete control)

CC(C)N(C(=O)n1oc(=O)n(CCC2CCCCC2)c1=O)c1ccc(F)cc1 [Compound 257]
8: Plant response rating (0 to 10; 0 is no effect, 10 is complete control), Morningglory (morningglory; Rate 250 g/ha, Postemergence) | Morningglory plant response rating (morningglory; [7])
9: Plant response rating, Giant foxtail (giant foxtail; [3])
3: Plant response rating, B. signalgrass (surinam grass; [3]) | Giant foxtail plant response rating (giant foxtail; [1])
0: Cocklebur plant response rating (cocklebur; [1]) | Cocklebur plant response rating (cocklebur; [2]) | Plant response rating, Cocklebur (cocklebur; [3]) | Cocklebur plant response rating (cocklebur; [4]) | Cocklebur plant response rating (cocklebur; [5]) | Cocklebur plant response rating (cocklebur; [6]) | Plant response rating (0 to 10; 0 is no effect, 10 is complete control), Cocklebur (cocklebur; Rate 250 g/ha, Postemergence) | Cocklebur plant response rating (cocklebur; [7]) | B. signalgrass plant response rating (surinam grass; [1]) | B. signalgrass plant response rating (surinam grass; [2]) | B. signalgrass plant response rating (surinam grass; [4]) | B. signalgrass plant response rating (surinam grass; Rate 125 g/ha, Postemergence, scale 0 (no effect) to 10 (complete control)) | B. signalgrass plant response rating (surinam grass; [6]) | Plant response rating (0 to 10; 0 is no effect, 10 is complete control), B. signalgrass (surinam grass; Rate 250 g/ha, Postemergence) | B. signalgrass plant response rating (surinam grass; [7]) | Wheat plant response rating (wheat; [1]) | Wheat plant response rating (wheat; [2]) | Wheat plant response rating (wheat; [6]) | Wheat plant response rating (wheat; [7]) | S. Flatsedge plant response rating (smallflower flatsedge; [8]) | S. Flatsedge plant response rating (smallflower flatsedge; [9]) | S. Flatsedge plant response rating (smallflower flatsedge; [10]) | S. Flatsedge plant response rating (smallflower flatsedge; [11]) | Rape plant response rating (rape; [1]) | Rape plant response rating (rape; [2]) | Plant response rating, Rape (rape; [3]) | Rape plant response rating (rape; [6]) | Wild oats plant response rating (wild oat; [1]) | Wild oats plant response rating (wild oat; [2]) | Wild oats plant response rating (wild oat; [6]) | Wild oats plant response rating (wild oat; [7]) | Morningglory plant response rating (morningglory; [1]) | Morningglory plant response rating (morningglory; [6]) | Velvetleaf plant response rating (velvetleaf; [1]) | Velvetleaf plant response rating (velvetleaf; [2]) | Plant response rating, Velvetleaf (velvetleaf; [3]) | Velvetleaf plant response rating (velvetleaf; [6]) | Sugarbeets plant response rating (sugar beet; [1]) | Sugarbeets plant response rating (sugar beet; [2]) | Plant response rating, Sugarbeets (sugar beet; [3]) | Sugarbeets plant response rating (sugar beet; [6]) | Plant response rating (0 to 10; 0 is no effect, 10 is complete control), Giant foxtail (giant foxtail; Rate 250 g/ha, Postemergence) | Blackgrass plant response rating (blackgrass; [1]) | Blackgrass plant response rating (blackgrass; [2]) | Plant response rating, Blackgrass (blackgrass; [3]) | Blackgrass plant response rating (blackgrass; [4]) | Blackgrass plant response rating (blackgrass; [5]) | Blackgrass plant response rating (blackgrass; [6]) | Ducksalad plant response rating (duck salad; [8]) | Ducksalad plant response rating (duck salad; [9]) | Ducksalad plant response rating (duck salad; [10]) | Ducksalad plant response rating (duck salad; [11]) | Corn plant response rating (corn; [1]) | Corn plant response rating (corn; [2]) | Plant response rating, Corn (corn; [3]) | Corn plant response rating (corn; [4]) | Corn plant response rating (corn; [5]) | Corn plant response rating (corn; [6]) | Plant response rating (0 to 10; 0 is no effect, 10 is complete control), Corn (corn; Rate 250 g/ha, Postemergence) | Corn plant response rating (corn; [7]) | Crabgrass plant response rating (crabgrass; [1]) | Soybean plant response rating (soybean; [1]) | Soybean plant response rating (soybean; [2]) | Plant response rating, Soybean (soybean; [3]) | Soybean plant response rating (soybean; [6]) | Rice plant response rating (rice; [8]) | Rice plant response rating (rice; [9]) | Rice plant response rating (rice; [10]) | Rice plant response rating (rice; [11]) | Bedstraw plant response rating (bedstraw; [1]) | Bedstraw plant response rating (bedstraw; [2]) | Plant response rating, Bedstraw (bedstraw; [3]) | Bedstraw plant response rating (bedstraw; [4]) | Bedstraw plant response rating (bedstraw; [5]) | Bedstraw plant response rating (bedstraw; [6]) | Plant response rating (0 to 10; 0 is no effect, 10 is complete control), Bedstraw (bedstraw; Rate 250 g/ha, Postemergence) | Bedstraw plant response rating (bedstraw; [7]) | Redroot pigweed plant response rating (pigweed; [1]) | Redroot pigweed plant response rating (pigweed; [2]) | Redroot pigweed plant response rating (pigweed; [6]) | Barnyardgrass plant response rating (bamyardgrass; [8]) | Barnyardgrass plant response rating (bamyardgrass; [9]) | Barnyardgrass plant response rating (bamyardgrass; [10]) | Barnyardgrass plant response rating (bamyardgrass; [11]) | Nutsedge plant response rating (purple nutsedge; [2]) | Plant response rating, Nutsedge (purple nutsedge; [3]) | Nutsedge plant response rating (purple nutsedge; [6]) | Plant response rating (0 to 10; 0 is no effect, 10 is complete control), Nutsedge (purple nutsedge; Rate 250 g/ha, Postemergence) | Nutsedge plant response rating (purple nutsedge; [7])
4: Plant response rating, Wheat (wheat; [3]) | Plant response rating, Wild oats (wild oat; [3]) | Plant response rating, Morningglory (morningglory; [3]) | Crabgrass plant response rating (crabgrass; [7]) | Soybean plant response rating (soybean; [7]) | Plant response rating, Redroot pigweed (pigweed; [3]) | Plant response rating (0 to 10; 0 is no effect, 10 is complete control), Redroot pigweed (pigweed; Rate 250 g/ha, Postemergence)
6: Giant foxtail plant response rating (giant foxtail; [2]) | Giant foxtail plant response rating (giant foxtail; [6]) | Redroot pigweed plant response rating (pigweed; [7])
5: Rape plant response rating (rape; [7]) | Sugarbeets plant response rating (sugar beet; [7]) | Plant response rating, Crabgrass (crabgrass; [3])
1: Velvetleaf plant response rating (velvetleaf; [7]) | Plant response rating (0 to 10; 0 is no effect, 10 is complete control), Blackgrass (blackgrass; Rate 250 g/ha, Postemergence)
2: Plant response rating (0 to 10; 0 is no effect, 10 is complete control), Rape (rape; Rate 250 g/ha, Postemergence) | Morningglory plant response rating (morningglory; [2]) | Giant foxtail plant response rating (giant foxtail; [7]) | Blackgrass plant response rating (blackgrass; [7]) | Crabgrass plant response rating (crabgrass; [2]) | Crabgrass plant response rating (crabgrass; [6]) | Plant response rating (0 to 10; 0 is no effect, 10 is complete control), Crabgrass (crabgrass; Rate 250 g/ha, Postemergence)
